Laboratory results from ChEMBL document CHEMBL5154675, “Design, Synthesis, and Biological Evaluation of 1-(Indolizin-3-yl)ethan-1-ones as CBP Bromodomain Inhibitors for the Treatment of Prostate Cancer” (J Med Chem, 2022).
pIC50, pKd: −log10 of the molar value.

Tests used:
CREB-binding protein [1] = biological target: T1, CREB-binding protein (Homo sapiens, UniProt Q92793); conditions: dose 200.0 µM, time 30.0 min
Target sequence in this assay (Q92793 2-2442 limits assumed): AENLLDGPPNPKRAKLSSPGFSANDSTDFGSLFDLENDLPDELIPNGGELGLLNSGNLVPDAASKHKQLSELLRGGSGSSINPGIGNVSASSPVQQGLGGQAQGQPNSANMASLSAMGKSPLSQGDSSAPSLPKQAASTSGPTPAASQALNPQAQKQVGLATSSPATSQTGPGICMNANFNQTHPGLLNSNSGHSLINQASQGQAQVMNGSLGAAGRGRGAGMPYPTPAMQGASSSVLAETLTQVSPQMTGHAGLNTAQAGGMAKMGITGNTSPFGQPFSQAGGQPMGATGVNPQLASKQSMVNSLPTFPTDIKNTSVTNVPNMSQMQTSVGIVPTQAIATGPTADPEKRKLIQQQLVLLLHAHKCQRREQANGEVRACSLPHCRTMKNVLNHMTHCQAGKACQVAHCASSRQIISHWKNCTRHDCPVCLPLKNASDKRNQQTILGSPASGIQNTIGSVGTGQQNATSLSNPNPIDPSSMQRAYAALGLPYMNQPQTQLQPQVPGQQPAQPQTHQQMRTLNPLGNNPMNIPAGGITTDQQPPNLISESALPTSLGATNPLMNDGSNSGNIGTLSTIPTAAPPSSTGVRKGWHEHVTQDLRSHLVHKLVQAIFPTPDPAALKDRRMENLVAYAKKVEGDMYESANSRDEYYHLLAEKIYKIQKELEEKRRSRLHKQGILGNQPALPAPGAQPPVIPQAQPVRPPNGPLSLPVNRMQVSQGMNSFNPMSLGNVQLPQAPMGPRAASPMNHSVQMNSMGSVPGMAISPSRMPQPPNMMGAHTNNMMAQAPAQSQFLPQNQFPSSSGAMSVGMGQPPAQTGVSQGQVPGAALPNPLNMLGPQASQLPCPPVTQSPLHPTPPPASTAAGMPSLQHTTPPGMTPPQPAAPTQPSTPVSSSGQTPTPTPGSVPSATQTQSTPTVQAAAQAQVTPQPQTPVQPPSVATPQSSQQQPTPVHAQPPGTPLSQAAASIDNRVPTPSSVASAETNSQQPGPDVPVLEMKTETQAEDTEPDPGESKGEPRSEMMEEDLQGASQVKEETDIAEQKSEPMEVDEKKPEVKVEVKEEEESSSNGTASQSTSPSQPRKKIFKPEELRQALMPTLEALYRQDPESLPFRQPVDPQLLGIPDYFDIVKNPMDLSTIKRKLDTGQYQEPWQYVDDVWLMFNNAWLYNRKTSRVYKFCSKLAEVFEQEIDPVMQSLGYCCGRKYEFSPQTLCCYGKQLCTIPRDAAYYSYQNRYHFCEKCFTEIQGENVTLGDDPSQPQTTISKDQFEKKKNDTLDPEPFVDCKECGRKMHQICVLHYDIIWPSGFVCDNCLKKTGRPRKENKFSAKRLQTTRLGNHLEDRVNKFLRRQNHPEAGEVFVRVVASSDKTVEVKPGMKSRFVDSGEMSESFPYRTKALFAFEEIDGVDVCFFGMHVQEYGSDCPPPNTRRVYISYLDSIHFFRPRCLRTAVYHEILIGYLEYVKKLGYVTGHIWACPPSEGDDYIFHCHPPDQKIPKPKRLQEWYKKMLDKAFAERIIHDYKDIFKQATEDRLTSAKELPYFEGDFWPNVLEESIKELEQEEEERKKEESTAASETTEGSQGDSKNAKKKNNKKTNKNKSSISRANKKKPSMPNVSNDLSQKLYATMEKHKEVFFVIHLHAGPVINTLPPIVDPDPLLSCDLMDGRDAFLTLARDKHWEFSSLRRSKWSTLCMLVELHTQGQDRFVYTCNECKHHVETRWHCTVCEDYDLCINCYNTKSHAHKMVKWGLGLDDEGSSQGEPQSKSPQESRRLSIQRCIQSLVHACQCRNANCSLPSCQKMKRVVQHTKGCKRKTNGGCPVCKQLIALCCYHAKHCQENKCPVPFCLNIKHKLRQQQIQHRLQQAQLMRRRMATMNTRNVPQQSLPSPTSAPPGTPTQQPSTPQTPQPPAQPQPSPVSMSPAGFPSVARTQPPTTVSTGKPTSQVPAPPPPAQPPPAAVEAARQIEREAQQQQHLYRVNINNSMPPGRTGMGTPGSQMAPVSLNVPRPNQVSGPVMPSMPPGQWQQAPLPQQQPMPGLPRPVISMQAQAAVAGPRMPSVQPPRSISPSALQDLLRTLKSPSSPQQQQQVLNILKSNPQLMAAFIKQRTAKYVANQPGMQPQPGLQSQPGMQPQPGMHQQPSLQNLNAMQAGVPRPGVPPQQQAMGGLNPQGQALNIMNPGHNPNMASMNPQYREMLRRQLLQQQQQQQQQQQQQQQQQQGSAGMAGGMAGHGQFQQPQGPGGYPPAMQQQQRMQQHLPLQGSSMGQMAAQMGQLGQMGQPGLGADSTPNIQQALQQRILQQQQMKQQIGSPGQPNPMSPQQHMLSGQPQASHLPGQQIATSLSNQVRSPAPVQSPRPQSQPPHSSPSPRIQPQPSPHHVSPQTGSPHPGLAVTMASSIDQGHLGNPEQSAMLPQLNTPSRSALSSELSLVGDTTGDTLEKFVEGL

CREB-binding protein [2] = biological target: T1, CREB-binding protein; experiment: Inhibition of His6-tagged human CBP bromodomain (1081 to 1197 residues) expressed in Escherichia coli BL21 (DE3) incubated for 30 mins by HTRF assay
Target sequence in this assay (Q92793 whole entry, the tested form may be a part): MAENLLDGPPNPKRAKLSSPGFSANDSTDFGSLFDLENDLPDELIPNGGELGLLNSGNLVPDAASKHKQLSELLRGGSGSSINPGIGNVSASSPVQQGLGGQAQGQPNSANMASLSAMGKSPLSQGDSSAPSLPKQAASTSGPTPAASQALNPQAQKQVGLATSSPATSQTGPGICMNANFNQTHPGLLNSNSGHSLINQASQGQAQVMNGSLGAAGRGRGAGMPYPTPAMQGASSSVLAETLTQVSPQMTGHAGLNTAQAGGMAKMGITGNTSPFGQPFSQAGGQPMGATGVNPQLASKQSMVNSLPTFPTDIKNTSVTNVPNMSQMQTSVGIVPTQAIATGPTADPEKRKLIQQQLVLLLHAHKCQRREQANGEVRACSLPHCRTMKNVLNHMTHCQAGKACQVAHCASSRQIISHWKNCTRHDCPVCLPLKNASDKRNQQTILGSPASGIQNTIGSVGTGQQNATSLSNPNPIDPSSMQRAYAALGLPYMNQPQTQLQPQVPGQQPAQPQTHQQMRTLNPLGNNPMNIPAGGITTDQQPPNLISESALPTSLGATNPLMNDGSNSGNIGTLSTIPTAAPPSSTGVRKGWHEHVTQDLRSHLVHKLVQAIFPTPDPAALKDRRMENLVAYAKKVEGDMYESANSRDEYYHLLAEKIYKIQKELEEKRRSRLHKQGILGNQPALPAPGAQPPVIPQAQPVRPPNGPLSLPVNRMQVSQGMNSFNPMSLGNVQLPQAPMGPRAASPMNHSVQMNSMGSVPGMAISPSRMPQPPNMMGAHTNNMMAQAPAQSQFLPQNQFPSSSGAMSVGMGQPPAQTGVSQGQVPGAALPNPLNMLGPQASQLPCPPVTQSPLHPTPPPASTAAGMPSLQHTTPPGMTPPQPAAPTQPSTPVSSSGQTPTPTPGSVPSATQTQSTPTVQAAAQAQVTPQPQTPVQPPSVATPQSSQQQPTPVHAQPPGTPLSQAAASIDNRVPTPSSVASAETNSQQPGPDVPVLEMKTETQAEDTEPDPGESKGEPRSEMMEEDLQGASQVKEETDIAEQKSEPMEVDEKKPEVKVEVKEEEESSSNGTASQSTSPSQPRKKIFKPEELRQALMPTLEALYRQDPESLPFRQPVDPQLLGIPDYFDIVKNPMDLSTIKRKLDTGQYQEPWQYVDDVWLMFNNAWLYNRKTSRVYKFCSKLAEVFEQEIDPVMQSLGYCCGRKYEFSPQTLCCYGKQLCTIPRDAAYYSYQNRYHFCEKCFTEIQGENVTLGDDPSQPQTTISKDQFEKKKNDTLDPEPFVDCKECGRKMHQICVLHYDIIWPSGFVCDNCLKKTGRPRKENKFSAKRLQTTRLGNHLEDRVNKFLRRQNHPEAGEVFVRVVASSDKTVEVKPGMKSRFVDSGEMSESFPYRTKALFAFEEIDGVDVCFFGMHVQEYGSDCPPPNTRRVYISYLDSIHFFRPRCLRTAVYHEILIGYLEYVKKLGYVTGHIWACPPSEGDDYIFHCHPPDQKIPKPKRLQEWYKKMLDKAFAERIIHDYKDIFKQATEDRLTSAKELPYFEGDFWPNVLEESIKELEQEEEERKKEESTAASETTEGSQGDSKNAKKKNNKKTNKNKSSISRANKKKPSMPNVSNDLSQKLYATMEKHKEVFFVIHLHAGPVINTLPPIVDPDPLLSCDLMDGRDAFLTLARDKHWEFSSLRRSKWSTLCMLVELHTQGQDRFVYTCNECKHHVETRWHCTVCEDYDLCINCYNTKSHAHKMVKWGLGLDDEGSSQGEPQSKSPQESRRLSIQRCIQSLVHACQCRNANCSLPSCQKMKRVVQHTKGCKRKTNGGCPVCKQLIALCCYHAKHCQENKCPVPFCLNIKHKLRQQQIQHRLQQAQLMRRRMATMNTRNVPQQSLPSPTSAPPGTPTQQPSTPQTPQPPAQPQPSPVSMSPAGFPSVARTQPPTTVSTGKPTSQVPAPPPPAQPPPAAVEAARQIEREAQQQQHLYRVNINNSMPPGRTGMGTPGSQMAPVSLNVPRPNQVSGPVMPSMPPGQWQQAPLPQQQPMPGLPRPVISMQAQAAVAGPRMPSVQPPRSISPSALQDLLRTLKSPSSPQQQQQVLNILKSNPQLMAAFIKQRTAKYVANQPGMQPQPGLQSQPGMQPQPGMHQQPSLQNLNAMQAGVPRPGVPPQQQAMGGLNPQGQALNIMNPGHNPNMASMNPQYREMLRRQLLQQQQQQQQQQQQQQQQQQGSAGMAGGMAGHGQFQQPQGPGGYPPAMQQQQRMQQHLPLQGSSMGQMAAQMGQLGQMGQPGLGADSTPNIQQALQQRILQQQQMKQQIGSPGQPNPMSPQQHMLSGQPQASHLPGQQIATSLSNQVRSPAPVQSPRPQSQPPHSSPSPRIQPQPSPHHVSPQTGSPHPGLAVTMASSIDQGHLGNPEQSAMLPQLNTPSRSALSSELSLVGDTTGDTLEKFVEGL

LNCaP C4-2B = experiment: Antiproliferative activity against human LNCaP C4-2B cells assessed as inhibition of cell growth by Celltiter-Glo assay; format: functional, cell-based
[3] = biological target: T2, Bromodomain-containing protein 3 (Homo sapiens, UniProt Q15059); conditions: dose 200.0 µM, time 30.0 min
[4] = biological target: Bromodomain adjacent to zinc finger domain protein 2B (Homo sapiens) (UniProt Q9UIF8); conditions: dose 200.0 µM, time 30.0 min
[5] = biological target: T3, Bromodomain-containing protein 4 (Homo sapiens, UniProt O60885); conditions: dose 200.0 µM, time 30.0 min
[6] = biological target: PH-interacting protein (Homo sapiens) (UniProt Q8WWQ0); conditions: dose 200.0 µM, time 30.0 min
[7] = biological target: T4, Bromodomain-containing protein 9 (Homo sapiens) (UniProt Q9H8M2); conditions: dose 200.0 µM, time 30.0 min
T4 sequence (whole entry): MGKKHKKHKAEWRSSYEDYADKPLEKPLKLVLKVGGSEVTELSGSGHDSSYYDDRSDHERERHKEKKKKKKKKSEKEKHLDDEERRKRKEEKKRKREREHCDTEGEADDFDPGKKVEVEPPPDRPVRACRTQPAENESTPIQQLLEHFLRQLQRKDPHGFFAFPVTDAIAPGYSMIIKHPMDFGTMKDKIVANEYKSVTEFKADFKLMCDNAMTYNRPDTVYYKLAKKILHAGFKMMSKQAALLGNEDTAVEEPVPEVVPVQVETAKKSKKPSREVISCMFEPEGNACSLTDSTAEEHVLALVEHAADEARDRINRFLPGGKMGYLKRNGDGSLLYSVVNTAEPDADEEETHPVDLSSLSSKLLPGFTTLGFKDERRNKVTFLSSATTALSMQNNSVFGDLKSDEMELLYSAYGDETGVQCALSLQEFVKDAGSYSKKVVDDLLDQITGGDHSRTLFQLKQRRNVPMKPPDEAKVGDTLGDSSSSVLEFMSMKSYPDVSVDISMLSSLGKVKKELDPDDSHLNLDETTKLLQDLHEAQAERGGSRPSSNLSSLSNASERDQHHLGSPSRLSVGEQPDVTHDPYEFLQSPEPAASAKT

[8] = biological target: T5, Bromodomain-containing protein 2 (Homo sapiens, UniProt P25440); conditions: dose 200.0 µM, time 30.0 min
[9] = biological target: T2, Bromodomain-containing protein 3; conditions: dose 200.0 µM, time 30.0 min; remark: listed apart in the source
CREB-binding protein [10] = biological target: T1, CREB-binding protein; experiment: Binding affinity to His6-tagged human CBP bromodomain (1081 to 1197 residues) expressed in Escherichia coli BL21 (DE3) assessed as dissociation constant by ITC analysis
Target sequence in this assay (Q92793 whole entry, the tested form may be a part): as the sequence (Q92793 whole entry, the tested form may be a part) above

CWR22R = experiment: Antiproliferative activity against human 22Rv1 cells assessed as cell growth inhibition by Celltiter-Glo assay; format: functional, cell-based
[11] = biological target: Histone acetyltransferase p300 (Homo sapiens) (UniProt Q09472); conditions: dose 200.0 µM, time 30.0 min
[12] = biological target: T5, Bromodomain-containing protein 2; conditions: dose 200.0 µM, time 30.0 min; remark: listed apart in the source
LNCaP = experiment: Antiproliferative activity against human LNCaP cells assessed as cell growth inhibition by Celltiter-Glo assay; format: functional, cell-based
[13] = biological target: Chromatin remodeling regulator CECR2 (Homo sapiens) (UniProt Q9BXF3); conditions: dose 200.0 µM, time 30.0 min
[14] = biological target: T6, Bromodomain testis-specific protein (Homo sapiens, UniProt Q58F21); conditions: dose 200.0 µM, time 30.0 min
[15] = biological target: Histone acetyltransferase KAT2B (Homo sapiens) (UniProt Q92831); conditions: dose 200.0 µM, time 30.0 min
[16] = biological target: T3, Bromodomain-containing protein 4; conditions: dose 200.0 µM, time 30.0 min; remark: listed apart in the source
[17] = biological target: SWI/SNF-related matrix-associated actin-dependent regulator of chromatin subfamily A member 2 (Homo sapiens) (UniProt P51531); conditions: dose 200.0 µM, time 30.0 min
[18] = biological target: T6, Bromodomain testis-specific protein; conditions: dose 200.0 µM, time 30.0 min; remark: listed apart in the source
[19] = Half life in rat liver microsomes at 1 uM incubated for 45 mins in presence of NADPH by LC-MS/MS analysis; format: ADME, Microsome
[20] = Metabolic stability in rat liver microsomes assessed as parent compound remaining at 1 uM incubated for 45 mins in presence of NADPH by LC-MS/MS analysis; format: ADME, Microsome; conditions: read-out: Stability
[21] = Hepatic clearance in rat liver microsomes at 1 uM incubated for 45 mins in presence of NADPH by LC-MS/MS analysis; format: ADME, Microsome
[22] = Intrinsic clearance in rat liver microsomes at 1 uM incubated for 45 mins in presence of NADPH by LC-MS/MS analysis; format: ADME, Microsome; conditions: read-out: CLH
in vitro = conditions: rat, liver microsomes
Description: Hepatic extraction ratio in rat liver microsomes at 1 uM incubated for 45 mins in presence of NADPH by LC-MS/MS analysis

[23] = Apparent permeability across basolateral to apical side in human Caco-2 cells assessed as drug recovery at 10 uM measured after 2 hrs by LC-MS/MS analysis; format: ADME, cell-based; conditions: read-out: Drug recovery
[24] = Apparent permeability across apical to basolateral side in human Caco-2 cells assessed as drug recovery at 10 uM measured after 2 hrs by LC-MS/MS analysis; format: ADME, cell-based; conditions: read-out: Drug recovery
[25] = Apparent permeability across apical to basolateral side in human Caco-2 cells at 10 uM measured after 2 hrs by LC-MS/MS analysis; format: ADME, cell-based

SMILES	ΔTm (CREB-binding protein [1]) [°C]	pIC50 (CREB-binding protein [2])	pIC50 (LNCaP C4-2B)	further results
COc1ccn2c(C(C)=O)cc(C(=O)Nc3cc(CO)cc(-c4cnn(C)c4)c3F)c2c1	8.4	7.92	5.02	
CC(=O)c1cc(C(=O)Nc2cc(CO)cc(-c3cnn(C)c3)c2F)c2cc(C)ccn12	6.3	7.86	< 4.30	
C[C@@H]1CC(=O)Nc2cccc(-c3ccc4c(c3)c(-c3cnn(C)c3)nn4C)c2N1	14.3	7.86	5.47	ΔTm [3]: 1.5 °C; ΔTm [4]: -0.2 °C; ΔTm [5]: 0 °C; ΔTm [6]: 0 °C; ΔTm [7]: 7 °C; ΔTm [8]: 1 °C; ΔTm [9]: 1 °C; pKd (CREB-binding protein [10]): 7.17; pIC50 (CWR22R): 5.50; ΔTm [11]: 15.5 °C; ΔTm [12]: 1.3 °C; pIC50 (LNCaP): 6.19; ΔTm [13]: -0.2 °C; ΔTm [14]: -0.5 °C; ΔTm [15]: -0.2 °C; ΔTm [16]: 5 °C; ΔTm [17]: -0.3 °C; ΔTm [18]: 1.8 °C
COc1ccn2c(C(C)=O)cc(C(=O)Nc3cc(C(=O)O)cc(-c4cnn(C)c4)c3F)c2c1	11.4	8.01		pKd (CREB-binding protein [10]): 7.52; half-life at 1 µM [19]: > 120 min; remaining at 0.75 h, 1 µM [20]: 100%
COc1ccn2c(C(C)=O)cc(C(=O)Nc3cc(C(F)(F)F)cc(-c4cnn(C)c4)c3F)c2c1	2.7		< 4.30	
COc1ccn2c(C(C)=O)cc(C(=O)Nc3cc(C(N)=O)cc(-c4cnn(C)c4)c3F)c2c1	2.4			
CNc1ccn2c(C(C)=O)cc(C(=O)Nc3cc(CO)cc(-c4cnn(C)c4)c3F)c2c1	9.9	8.68	< 4.30	
CNC(=O)c1cc(C(=O)Nc2cc(CO)cc(-c3cnn(C)c3)c2F)c2cc(O)ccn12	2.4			
CC(=O)c1cc(C(=O)Nc2cc(CO)cc(-c3cnn(C)c3)c2F)c2cc(O)ccn12	12.6		4.47	pKd (CREB-binding protein [10]): 7.36
CC(=O)c1cc(C(=O)Nc2cc(C(C)O)cc(-c3cnn(C4CC4)c3)c2F)c2cc(O)ccn12 (stereo not drawn)	12	7.10	4.38	
CC(C)C(=O)c1cc(C(=O)Nc2cc(CO)cc(-c3cnn(C)c3)c2F)c2cc(O)ccn12	1.8		4.43	
CC(=O)c1cc(C(=O)Nc2cc(CO)cc(-c3cnn(C)c3)c2F)c2cc(CN)ccn12	8.7	7.25	4.87	
COc1ccc2c(c1)c(C(=O)Nc1cc(C(=O)O)cc(-c3cnn(C)c3)c1F)cn2C(C)=O		6.75		pKd (CREB-binding protein [10]): 6.78; half-life at 1 µM [19]: 13.1 min; CLhep predicted at 1 µM [21]: 42.7 mL/min/kg; CLint scaled at 1 µM [22]: 189 mL/min/kg; remaining at 0.75 h, 1 µM [20]: 7.7%; hepatic extraction ratio at 0.75 h, 1 µM (in vitro): 0.774
CC(=O)c1cc(C(=O)Nc2cc(C(C)O)cc(-c3cnn(C4CC4)c3)c2F)c2cc(OC(=O)N(C)C)ccn12 (stereo not drawn)	10	7.58	5.04	
COC(=O)c1cc(NC(=O)c2cc(C(C)=O)n3ccc(OC)cc23)c(F)c(-c2cnn(C)c2)c1	3.3		< 4.30	
CC(C)NCC(O)COc1ccc(CC(N)=O)cc1 (stereo not drawn) [ATENOLOL]				recovery at 2 h, 10 µM [23]: 94.2%; recovery at 2 h, 10 µM [24]: 94.8%
C[C@H]1O[C@@H](O[C@H]2[C@@H](O)C[C@H](O[C@H]3[C@@H](O)C[C@H](O[C@H]4CC[C@@]5(C)[C@H](CC[C@@H]6[C@@H]5C[C@@H](O)[C@]5(C)[C@@H](C7=CC(=O)OC7)CC[C@]65O)C4)O[C@@H]3C)O[C@@H]2C)C[C@H](O)[C@@H]1O [DIGOXIN]				recovery at 2 h, 10 µM [23]: 92.7%; Papp A→B at 2 h, 10 µM [25]: 1.26 ×10⁻⁶ cm/s
CCC(=O)c1cc(C(=O)Nc2cc(CO)cc(-c3cnn(C)c3)c2F)c2cc(O)ccn12	11.1	7.11	4.46	
CCc1ccn2c(C(C)=O)cc(C(=O)Nc3cc(CO)cc(-c4cnn(C)c4)c3F)c2c1	6.3	7.66	4.30	
COc1ccn2c(C(C)=O)cc(C(=O)Nc3cc(F)cc(-c4cnn(C)c4)c3F)c2c1	6.6	7.16	< 4.30	
CC(=O)c1cc(C(=O)Nc2cc(CO)cc(-c3cnn(C4CC4)c3)c2F)c2cc(N)ccn12	10.5	8.53	5.06	
COc1ccn2c(C(C)=O)cc(C(=O)Nc3cc(Cl)cc(-c4cnn(C)c4)c3F)c2c1	6	7.26	5.03	
CC(=O)c1cc(C(=O)Nc2cc(CO)cc(-c3cnn(C4CC4)c3)c2F)c2cc(O)ccn12	14.1	7.60	4.54	
CC(=O)c1cc(C(=O)Nc2cc(CO)cc(-c3cnn(C)c3)c2F)c2cc(OC(=O)C(C)(C)C)ccn12	6	7.38	4.53	
Cn1cc(-c2cc(CO)cc(NC(=O)c3cc(C(=O)C(C)(C)C)n4ccc(O)cc34)c2F)cn1	0.9		4.47	
O=C(c1ccc(F)cc1)C1CCN(CCn2c(=O)[nH]c3ccccc3c2=O)CC1 [KETANSERIN]				half-life at 1 µM [19]: 15.6 min; CLhep predicted at 1 µM [21]: 41 mL/min/kg; CLint scaled at 1 µM [22]: 159 mL/min/kg
Cn1cc(-c2cc(CO)cc(NC(=O)c3cc(C(=O)C4CC4)n4ccc(O)cc34)c2F)cn1	2.1			
CC(=O)c1cc(C(=O)Nc2cc(CO)cc(-c3cnn(C)c3)c2F)c2cc(OCc3ccccc3)ccn12	3.9		4.30	
COc1ccn2c(C(C)=O)cc(C(=O)Nc3cc(C=O)cc(-c4cnn(C)c4)c3F)c2c1	5.4	7.89	4.76	
